Values joined by “and” are separate entries in the source; they are usually repeats but may differ in a detail not shown here. Equal values may be shown once.
Key:
[1] = tested on: adult female cynomolgus monkeys; experiment: Part I dose-finding study: residual serum estradiol (RIA) during 14 days of daily im GnRH antagonist; format: in vivo; conditions: 0.1 mg/kg im daily; individual monkeys for whom the dose was too much, predominately
Protocol: (§1) Eleven adult female cynomolgus monkeys having regular and presumably ovulatory menstrual cycles were entered into the study. Body weights were determined monthly. Menstrual bleeding and spotting were recorded daily by visual inspection of external genitalia and insertion of vaginal swabs using a saline moistened cotton-tipped applicator, respectively. Blood samples were collected from femoral vessels and the serum stored for subsequent RIA of estradiol and progesterone. Coefficients of variation for these assays were: 7.4 and 11.1; and 7.0 and 10.9%, respectively, for within and between assays. The GnRH antagonist (GnRHant) used was Nal-Glu: [Ac-D2NAL, 4ClDPhe^2, D3Pal^3, Arg^5, DGlu^6 (AA), DAla^10 ]-GnRH.
In Part I of the study, the object was to perform a brief dose-finding study that indicated residual serum estradiol levels in intact primates previously illustrating regular menstrual cycles. Specifically sought was an approximation of the minimal daily im dose of Nal-Glu sufficient to suppress circulating estradiol levels into the target range: less than 45 pg/ml but more than 35 pg/ml. Beginning on day 2 of the menstrual cycle, Nal-Glu GnRHant, suspended in sesame oil, was administered between 9 and 10 am in doses of 0.1 (n=5) and 0.3 mg/kg (n=6) for 14 days. Femoral blood was obtained daily under ketamine anesthesia. […]

[2] = tested on: adult female cynomolgus monkeys; experiment: Part II: titering the GnRHant dose to individual monkeys with periodic progesterone challenge tests (withdrawal bleeding versus amenorrhea, serum estradiol RIA); format: in vivo
Protocol: as §1
Concurrently, a pair of progesterone-loaded silastic implants were inserted sc during GnRHant treatment from day 20 and 30, and then removed. If withdrawal menses occurred during the next week, the individual Nal-Glu dose was raised to 0.1 mg/kg daily. […] Again, amenorrhea or withdrawal menses was recorded.
For definition, withdrawal bleeding was scored when blood was on the external genitalia for two or more consecutive days within the week following progesterone withdrawal. Spotting was scored when blood was evident only by coloration of the cotton swab upon insertion into the vagina.

pituitary-ovarian axis = conditions: sufficient single dose, monkeys, follicular phase; cited from earlier work

Substance | serum estradiols of some primates [1] [pg/mL] | mean serum estradiol concentrations ([2]; 8 monkeys after increase of the dose to 0.1 mg/kg im daily) | Amenorrhea Achieved (Monkeys) ([2]; first progesterone challenge test, withdrawal week days 31-37, all 11 monkeys at 0.05 mg/kg im daily) | monkeys manifesting frank withdrawal menses ([2]; first progesterone challenge test, 0.05 mg/kg im daily) | serum estradiol ([2]; lone resistant monkey at 0.2 mg/kg im daily, ultimately) | Amenorrhea Achieved (Monkeys) ([2]; second progesterone challenge test, withdrawal week days 61-67, doses 0.05 or 0.1 mg/kg im daily) | withdrawal outcome of the two monkeys that remained on 0.05 mg/kg ([2]; second progesterone challenge test, 0.05 mg/kg im daily) | monkeys achieving withdrawal amenorrhea ([2]; second progesterone challenge test, the nine females raised to 0.1 mg/kg im daily on day 31) | mean serum estradiol levels ([2]; the two primates amenorrheic at 0.05 mg/kg im daily, target zone 35 to 45 pg/ml) | Amenorrhea Achieved (Monkeys) ([2]; third progesterone challenge test, withdrawal week days 91-97, doses 0.05, 0.1 or 0.2 mg/kg im daily) | Incidence of Spotting ([2]; week of progesterone withdrawal days 31-37, 0.05 mg/kg im daily) [days] | Incidence of Spotting ([2]; week of progesterone withdrawal days 61-67, 0.05 or 0.1 mg/kg im daily) [days] | Incidence of Spotting ([2]; week of progesterone withdrawal days 91-97, 0.05, 0.1 or 0.2 mg/kg im daily) [days] | effect on the pituitary-ovarian axis (pituitary-ovarian axis)
[Ac-D2NAL, 4ClDPhe^2, D3Pal^3, Arg^5, DGlu^6 (AA), DAla^10 ]-GnRH [Nal-Glu] | < 25 | approximately 40 pg/ml | two and 2/11 | Nine | under 20 pg/ml | 10/11 | remained amenorrheic | 8 of 9 | hovered in or near the target zone | all eleven and 11/11 | 13 | 12 | 0 | 
D-Ac-D-2-Nal^1 -DpClPhe^2 -D-3-Pal^3 -Ser^4 -NiLys^5 -D-NicLys^6 -Leu^7 -ILys^8 -Pro^9 -D-Ala^10 [antide] |  |  |  |  |  |  |  |  |  |  |  |  |  | immediate and sustained inhibition of the pituitary-ovarian axis
